Biological target: T1, TNKS2 (Homo sapiens, UniProt Q9H2K2)
T1 sequence (Q9H2K2 1-1166): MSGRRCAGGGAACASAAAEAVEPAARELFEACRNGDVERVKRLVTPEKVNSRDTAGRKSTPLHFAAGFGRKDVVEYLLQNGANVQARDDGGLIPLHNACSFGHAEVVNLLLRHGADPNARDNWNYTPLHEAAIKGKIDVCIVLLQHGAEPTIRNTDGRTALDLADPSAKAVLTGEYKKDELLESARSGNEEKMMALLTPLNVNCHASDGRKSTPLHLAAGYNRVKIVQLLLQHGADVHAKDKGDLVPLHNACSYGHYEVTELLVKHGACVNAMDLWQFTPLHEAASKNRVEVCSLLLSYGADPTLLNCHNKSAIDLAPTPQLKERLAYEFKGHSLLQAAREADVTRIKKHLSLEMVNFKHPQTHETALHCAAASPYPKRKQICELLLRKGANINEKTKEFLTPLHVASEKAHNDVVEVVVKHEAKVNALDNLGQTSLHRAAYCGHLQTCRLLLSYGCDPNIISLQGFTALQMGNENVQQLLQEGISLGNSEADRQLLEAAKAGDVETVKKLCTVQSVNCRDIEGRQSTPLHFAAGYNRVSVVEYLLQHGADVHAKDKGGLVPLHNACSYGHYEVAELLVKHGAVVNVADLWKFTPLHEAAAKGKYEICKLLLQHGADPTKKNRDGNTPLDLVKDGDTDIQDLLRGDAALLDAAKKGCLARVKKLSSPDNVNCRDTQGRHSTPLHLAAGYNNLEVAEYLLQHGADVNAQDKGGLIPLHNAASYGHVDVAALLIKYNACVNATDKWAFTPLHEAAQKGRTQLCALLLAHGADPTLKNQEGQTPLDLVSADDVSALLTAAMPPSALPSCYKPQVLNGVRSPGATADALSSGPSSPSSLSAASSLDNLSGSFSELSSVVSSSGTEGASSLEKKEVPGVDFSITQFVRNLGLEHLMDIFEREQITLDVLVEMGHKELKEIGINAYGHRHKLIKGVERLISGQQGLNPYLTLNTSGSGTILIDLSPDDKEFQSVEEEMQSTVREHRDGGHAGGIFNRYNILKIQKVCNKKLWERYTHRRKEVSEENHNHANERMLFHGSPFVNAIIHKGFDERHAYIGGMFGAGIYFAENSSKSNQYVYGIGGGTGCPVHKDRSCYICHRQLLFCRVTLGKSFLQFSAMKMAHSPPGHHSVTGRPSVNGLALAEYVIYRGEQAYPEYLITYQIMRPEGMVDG
Test: Modified TNKS2 Assay 2 (auto-parsylation, [3H]-NAD+ SPA)
Format: biochemical
Details: 6 nM TNKS2, 96 well
Experimental: The potency of selected compounds according to the invention was assessed applying an modified in vitro inhibition assay. Here, the TNKS2 catalyzed NAD^+-dependent ribosylation of the enzyme itself (auto-parsylation) was detected using [^3H]-NAD^+ as substrate and applying the scintillation proximity assay (SPA) method to detect tritium-labeled, parsylated TNKS2. The intensity of the readout signal is proportional to the incorporated [^3H]-NAD^+. Inhibition of TNKS2 leads to a decreased incorporation of [^3H]-NAD^+ and consequently to a lower readout signal intensity. The concentration of a test compound which inhibits the enzyme activity by 50% (corresponds to half of the normed readout signal intensity) is reported as IC50.
The assay was conducted in a 96 well MTP format with the identical TNKS2 enzyme sample and NAD^+ sample as in the histone ribosylation assay with the following modifications: TNKS2 enzyme sample was diluted with a modified assay buffer (50 mM MES pH 7.0, 1 mM DTT, 0.01% Triton X-100) to a final concentration of 6 nM TNKS2 and 10×NAD^+ solution was diluted with the modified assay buffer (s. above) to a final 0.445×NAD^+ solution doped with 100 Bq/ul [^3H]-NAD^+ [Catalog #NET443H050UC, Perkin Elmer, Waltham, Mass., USA]. Substrate solution (10 ul) was incubated with different test compound concentrations (2.5 ul in 10% DMSO in modified assay buffer) or control (2.5 ul 10% DMSO in modified assay buffer only) and enzyme (10 ul) over night at room temperature. Incorporated tritium was measured after addition of 50 ul SPA beads (1 mg/ml) [Catalog #RPNQ0095 20 mg/ml, Perkin Elmer, Waltham, Mass., USA; diluted 1:10 with Dulbecco's phosphate buffered saline, PBS Catalog #D8537, Sigma-Aldrich, Steinheim, Germany] and detection of the photon emission with a beta count plate reader [Wallac MicroBeta®, Perkin Elmer, Waltham, Mass., USA].

Q: Which IC50 does the source give for `CC(C)CNC(=O)c1[nH]cnc1C(=O)Nc1ccc(NC(=O)c2ccc(F)cc2Cl)cc1` [Example 147, N^4-{4-[(2-chloro-4-fluorobenzoyl)amino]phenyl}-N^5-isobutyl-1H-imidazole-4,5-dicarboxamide] here?
A: 110 nM

Q: Which IC50 does the source give for `CC(C)(C)CNC(=O)c1[nH]cnc1C(=O)Nc1ccc(NC(=O)c2ccccc2Cl)cc1` [Example 148, N^4-{4-[(2-chlorobenzoyl)amino]phenyl}-N^5-(2,2-dimethylpropyl)-1H-imidazole-4,5-dicarboxamide] here?
A: 1100 nM

Q: For `CC1CCN(CC(C)(C)NC(=O)c2[nH]cnc2C(=O)Nc2ccc(NC(=O)c3ccc(F)cc3Cl)cc2)CC1` [Example 155, N^4-{4-[(2-chloro-4-fluorobenzoyl)amino]phenyl}-N^5-[2-methyl-1-(4-methylpiperidin-1-yl)propan-2-yl]-1H-imidazole-4,5-dicarboxamide], which IC50 is on record?
A: 80 nM

Q: Which IC50 does the source give for `O=C(Nc1ccc(NC(=O)c2nc[nH]c2C(=O)NC(CO)CO)cc1)c1ccccc1Cl` [Example 157, N^4-{4-[(2-chlorobenzoyl)amino]phenyl}-N^5-(1,3-dihydroxypropan-2-yl)-1H-imidazole-4,5-dicarboxamide] here?
A: 1400 nM

Q: Which IC50 does the source give for `CN1CCN(CCNC(=O)c2[nH]cnc2C(=O)Nc2ccc(NC(=O)c3ccccc3Cl)cc2)CC1` [Example 160, N^4-{4-[(2-chlorobenzoyl)amino]phenyl}-N^5-[2-(4-methylpiperazin-1-yl)ethyl]-1H-imidazole-4,5-dicarboxamide] here?
A: 110 nM

Q: For `CC1CCN(CCNC(=O)c2[nH]cnc2C(=O)Nc2ccc(NC(=O)c3ccc(F)cc3)cc2)CC1` [Example 164, N^4-{4-[(4-fluorobenzoyl)amino]phenyl}-N^5-[2-(4-methylpiperidin-1-yl)ethyl]-1H-imidazole-4,5-dicarboxamide], which IC50 is on record?
A: 60 nM

Q: How did the IC50 turn out when `CC(C)(CNC(=O)c1[nH]cnc1C(=O)Nc1ccc(NC(=O)c2ccccc2Cl)cc1)N1CCCCC1` [Example 165, N^4-{4-[(2-chlorobenzoyl)amino]phenyl}-N^5-[2-methyl-2-(piperidin-1-yl)propyl]-1H-imidazole-4,5-dicarboxamide] was run?
A: 70 nM

Q: For `O=C(Nc1ccc(NC(=O)c2nc[nH]c2C(=O)NCCF)cc1)c1ccccc1Cl` [Example 166, N^4-{4-[(2-chlorobenzoyl)amino]phenyl}-N^5-(2-fluoroethyl)-1H-imidazole-4,5-dicarboxamide], which IC50 is on record?
A: 330 nM

Q: With `CC1CCCCN1CCNC(=O)c1[nH]cnc1C(=O)Nc1ccc(NC(=O)c2ccc(F)cc2)cc1` (stereo not drawn) [Example 169, N^4-{4-[(4-fluorobenzoyl)amino]phenyl}-N^5-[2-(2-methylpiperidin-1-yl)ethyl]-1H-imidazole-4,5-dicarboxamide] as the compound, how does the IC50 read?
A: 180 nM

Q: For `CC(C)(CN1CCCCC1)NC(=O)c1[nH]cnc1C(=O)Nc1ccc(NC(=O)c2ccccc2Cl)cc1` [Example 171, N^4-{4-[(2-chlorobenzoyl)amino]phenyl}-N^5-[2-methyl-1-(piperidin-1-yl)propan-2-yl]-1H-imidazole-4,5-dicarboxamide], which IC50 is on record?
A: 340 nM

Q: `O=C(Nc1ccc(NC(=O)c2nc[nH]c2C(=O)NCCF)cc1)c1ccc(F)cc1Cl` [Example 173, N^4-{4-[(2-chloro-4-fluorobenzoyl)amino]phenyl}-N^5-(2-fluoroethyl)-1H-imidazole-4,5-dicarboxamide] was tested. Which IC50 did it give?
A: 50 nM

Q: How did the IC50 turn out when `O=C(Nc1ccc(NC(=O)c2nc[nH]c2C(=O)NCCN2CCCC2)cc1)c1ccc(F)cc1` [Example 176, N^4-{4-[(4-fluorobenzoyl)amino]phenyl}-N^5-[2-(pyrrolidin-1-yl)ethyl]-1H-imidazole-4,5-dicarboxamide] was run?
A: 60 nM

Q: With `CC(C)(CN1CCOCC1)NC(=O)c1[nH]cnc1C(=O)Nc1ccc(NC(=O)c2ccc(F)cc2)cc1` [Example 180, N^4-{4-[(4-fluorobenzoyl)amino]phenyl}-N^5-[2-methyl-1-(morpholin-4-yl)propan-2-yl]-1H-imidazole-4,5-dicarboxamide] as the compound, how does the IC50 read?
A: 6900 nM

Q: For `CC(CNC(=O)c1[nH]cnc1C(=O)Nc1ccc(NC(=O)c2ccccc2Cl)cc1)N1CCCCC1` (stereo not drawn) [Example 182, N^4-{4-[(2-chlorobenzoyl)amino]phenyl}-N^5-[2-(piperidin-1-yl)propyl]-1H-imidazole-4,5-dicarboxamide], which IC50 is on record?
A: 10 nM

Q: How did the IC50 turn out when `CC(C)(CN1CCCCC1)NC(=O)c1[nH]cnc1C(=O)Nc1ccc(NC(=O)c2ccc(F)cc2Cl)cc1` [Example 184, N^4-{4-[(2-chloro-4-fluorobenzoyl)amino]phenyl}-N^5-[2-methyl-1-(piperidin-1-yl)propan-2-yl]-1H-imidazole-4,5-dicarboxamide] was run?
A: 50 nM

Q: For `CN1CCN(C(C)(C)CNC(=O)c2[nH]cnc2C(=O)Nc2ccc(NC(=O)c3ccc(F)cc3Cl)cc2)CC1` [Example 187, N^4-{4-[(2-chloro-4-fluorobenzoyl)amino]phenyl}-N^5-[2-methyl-2-(4-methylpiperazin-1-yl)propyl]-1H-imidazole-4,5-dicarboxamide], which IC50 is on record?
A: 100 nM

Q: Which IC50 does the source give for `O=C(Nc1ccc(NC(=O)c2nc[nH]c2C(=O)NCCCCN2CCCCC2)cc1)c1ccccc1Cl` [Example 189, N^4-{4-[(2-chlorobenzoyl)amino]phenyl}-N^5-[4-(piperidin-1-yl)butyl]-1H-imidazole-4,5-dicarboxamide] here?
A: 260 nM

Q: How did the IC50 turn out when `O=C(Nc1ccc(NC(=O)c2nc[nH]c2C(=O)NCCN2CCC2)cc1)c1ccc(F)cc1` [Example 199, N^5-[2-(azetidin-1-yl)ethyl]-N^4-{4-[(4-fluorobenzoyl)amino]phenyl}-1H-imidazole-4,5-dicarboxamide] was run?
A: 130 nM

Q: How did the IC50 turn out when `O=C(Nc1ccc(NC(=O)c2nc[nH]c2C(=O)NCCCN2CCOCC2)cc1)c1ccccc1Cl` [Example 200, N^4-{4-[(2-chlorobenzoyl)amino]phenyl}-N^5-[3-(morpholin-4-yl)propyl]-1H-imidazole-4,5-dicarboxamide] was run?
A: 580 nM

Q: Which IC50 does the source give for `O=C(Nc1ccc(NC(=O)c2nc[nH]c2C(=O)NCCCN2CCOCC2)cc1)c1ccc(F)cc1` [Example 206, N^4-{4-[(4-fluorobenzoyl)amino]phenyl}-N^5-[3-(morpholin-4-yl)propyl]-1H-imidazole-4,5-dicarboxamide] here?
A: 5300 nM

Q: For `CC(C)(CN1CCOCC1)NC(=O)c1[nH]cnc1C(=O)Nc1ccc(NC(=O)c2ccc(F)cc2Cl)cc1` [Example 207, N^4-{4-[(2-chloro-4-fluorobenzoyl)amino]phenyl}-N^5-[2-methyl-1-(morpholin-4-yl)propan-2-yl]-1H-imidazole-4,5-dicarboxamide], which IC50 is on record?
A: 210 nM

Q: With `CC1CCCN(CCNC(=O)c2[nH]cnc2C(=O)Nc2ccc(NC(=O)c3ccc(F)cc3Cl)cc2)C1` (stereo not drawn) [Example 208, N^4-{4-[(2-chloro-4-fluorobenzoyl)amino]phenyl}-N^5-[2-(3-methylpiperidin-1-yl)ethyl]-1H-imidazole-4,5-dicarboxamide] as the compound, how does the IC50 read?
A: 2 nM

Q: How did the IC50 turn out when `CC(C)(CNC(=O)c1[nH]cnc1C(=O)Nc1ccc(NC(=O)c2ccc(F)cc2)cc1)N1CCCCC1` [Example 209, N^4-{4-[(4-fluorobenzoyl)amino]phenyl}-N^5-[2-methyl-2-(piperidin-1-yl)propyl]-1H-imidazole-4,5-dicarboxamide] was run?
A: 460 nM

Q: Which IC50 does the source give for `O=C(Nc1ccc(NC(=O)c2nc[nH]c2C(=O)NCCN2CCCCC2)cc1)c1ccc(F)cc1Br` [Example 216, N^4-{4-[(2-bromo-4-fluorobenzoyl)amino]phenyl}-N^5-[2-(piperidin-1-yl)ethyl]-1H-imidazole-4,5-dicarboxamide] here?
A: 2 nM

Reference: patent US9884063B2, “Amido-substituted azole compounds” (Bayer Pharma Aktiengesellschaft, priority 2014, dated 2018)
